This passage reports IC50, Activity and relative binding affinity (RBA) results from ChEMBL document CHEMBL1944525, “Synthesis and activity of folate conjugated didemnin B for potential treatment of inflammatory diseases” (Bioorg Med Chem Lett, 2012).

As a reminder, the IC50 is the concentration needed to halve the response being measured.

Assay [1] deals with RAW264.7. Put plainly: Antiinflammatory activity in mouse RAW264.7 cells assessed as inhibition of LPS-induced TNFalpha production after 72 hrs […]. In kind it is functional, cell-based. The conditions noted are these: RAW264.7, 72 h. In general terms: Tetrazolium dyes change colour on reduction, which living cells bring about.
Assay [2] has as its system RAW264.7. The assay is described as follows: Cytotoxicity against mouse RAW264.7 cells incubated for 5 hrs followed by replacement with fresh media measured after 72 hrs by XTT assay. Format: functional, cell-based.
Assay [3] concerns RAW264.7. The assay is described as follows: Displacement of [3H]-folic acid from folate receptor on mouse RAW264.7 cells assessed as relative binding after 1 hr by liquid scintillation counting. In kind it is cell-based. (In a radioligand displacement assay an active substance lowers the binding of a labelled ligand.)

For `CC[C@H](C)[C@H]1NC(=O)[C@@H](NC(=O)[C@@H](CC(C)C)N(C)C(=O)[C@H]2CCCN2C(=O)C(C)OC(=O)OCCSSC[C@H](NC(=O)[C@H](CC(=O)O)NC(=O)[C@H](CC(=O)O)NC(=O)[C@H](CCCNC(=N)N)NC(=O)[C@H](CC(=O)O)NC(=O)CC[C@H](NC(=O)c2ccc(NCc3cnc4nc(N)[nH]c(=O)c4n3)cc2)C(=O)O)C(=O)O)[C@@H](C)OC(=O)[C@H](Cc2ccc(OC)cc2)N(C)C(=O)[C@@H]2CCCN2C(=O)[C@H](CC(C)C)NC(=O)[C@@H](C)C(=O)[C@H](C(C)C)OC(=O)C[C@@H]1O` (some centres undefined) [FOLATE DIDEMNIN B], the IC50 is 5 nM in the assay on RAW264.7 [1] and 13 nM in the assay with RAW264.7 [2]. Besides, the Activity result in the assay with RAW264.7 [2] is “Dose-dependent effect”. Moreover, the relative binding affinity (RBA) with RAW264.7 [3] stood at 0.18.
